In brackets after ≈: the same amount, converted by molar mass. Activity calls are given as the source filed them. The calls are words filed in the database; no cut-off is given here.
Key:
Staphylococcus aureus [1] = test: Antibacterial activity against Staphylococcus aureus ATCC 29213 assessed as inhibition of bacterial growth incubated for 24 hrs by microbroth dilution method; type: functional
Staphylococcus aureus [2] = test: Antibacterial activity against methicillin resistant Staphylococcus aureus N315 assessed as inhibition of bacterial growth incubated for 24 hrs by microbroth dilution method; type: functional
Staphylococcus aureus [3] = test: Antibacterial activity against methicillin resistant Staphylococcus aureus NCTC10442 assessed as inhibition of bacterial growth incubated for 24 hrs by microbroth dilution method; type: functional
Staphylococcus aureus [4] = test: Antibacterial activity against Staphylococcus aureus ATCC 29213 infected in mouse corneal infection model assessed as log reduction in bacterial load at 50 mg/ml pre-infected with bacteria for 24 hrs followed by compound administered four times a day for 3 consecutive weeks; type: functional; details: time 3 weeks
[5] = Hemolytic activity in rabbit RBC incubated for 1 hr by microplate reader analysis; type: toxicity, cell-based, Oryctolagus cuniculus, Erythrocyte; details: rabbit red blood cells (erythrocytes)
Bacillus subtilis = test: Antibacterial activity against Bacillus subtilis CMCC63501 assessed as inhibition of bacterial growth incubated for 24 hrs by microbroth dilution method; type: functional
[6] = system: Staphylococcus epidermidis; test: Antibacterial activity against Staphylococcus epidermidis ATCC 12228 assessed as inhibition of bacterial growth incubated for 24 hrs by microbroth dilution method; type: functional
[7] = system: Staphylococcus epidermidis; test: Antibacterial activity against Staphylococcus epidermidis CMCC26069 assessed as inhibition of bacterial growth incubated for 24 hrs by microbroth dilution method; type: functional
Enterococcus faecalis = test: Antibacterial activity against Enterococcus faecalis ATCC 29212 assessed as inhibition of bacterial growth incubated for 24 hrs by microbroth dilution method; type: functional
Staphylococcus aureus [8] = test: Antibacterial activity against Staphylococcus aureus ATCC 29213 assessed as inhibition of bacterial growth in presence of 20 umol/L Fe2+ (reference value: […] microg/ml); type: functional
Staphylococcus aureus [9] = test: Bactericidal activity against Staphylococcus aureus ATCC 29213 at 4 to 8 times MIC after 0.5 hrs by time kill assay; type: functional
Staphylococcus aureus [10] = test: Bactericidal activity against Staphylococcus aureus ATCC 29213 at 4 to 8 times MIC after 24 hrs by time kill assay; type: functional, organism-based
Staphylococcus aureus [11] = test: Antibacterial activity against Staphylococcus aureus ATCC 29213 assessed as inhibition of bacterial growth in presence of 140 mmol/L Na+ (reference value: […] microg/ml); type: functional
Staphylococcus aureus [12] = test: Antibacterial activity against Staphylococcus aureus ATCC 29213 assessed as inhibition of bacterial growth in presence of 4.5 mmol/L K+ (reference value: […] microg/ml); type: functional
Staphylococcus aureus [13] = test: Antibacterial activity against Staphylococcus aureus ATCC 29213 assessed as inhibition of bacterial growth in presence of 2.50 mmol/L Ca2+ (reference value: […] microg/ml); type: functional
Staphylococcus aureus [14] = test: Antibacterial activity against Staphylococcus aureus ATCC 29213 assessed as inhibition of bacterial growth in presence of 1.00 mmol/L Mg2+ (reference value: […] microg/ml); type: functional
Staphylococcus aureus [15] = test: Antibacterial activity against Staphylococcus aureus ATCC 29213 assessed as inhibition of bacterial growth in presence of 19 umol/L Zn2+ (reference value: […] microg/ml); type: functional
Staphylococcus aureus [16] = test: Antibacterial activity against Staphylococcus aureus ATCC 29213 assessed as inhibition of bacterial growth in presence of 20 umol/L […] (reference value: […] microg/ml); type: functional
Staphylococcus aureus [17] = test: Antibacterial activity against methicillin resistant Staphylococcus aureus N315 assessed as inhibition of bacterial growth in presence of 140 mmol/L Na+ (reference value: […] microg/ml); type: functional
Staphylococcus aureus [18] = test: Antibacterial activity against methicillin resistant Staphylococcus aureus N315 assessed as inhibition of bacterial growth in presence of 4.5 mmol/L K+ (reference value: […] microg/ml); type: functional
Staphylococcus aureus [19] = test: Antibacterial activity against methicillin resistant Staphylococcus aureus N315 assessed as inhibition of bacterial growth in presence of 2.50 mmol/L Ca2+ (reference value: […] microg/ml); type: functional
Staphylococcus aureus [20] = test: Antibacterial activity against methicillin resistant Staphylococcus aureus N315 assessed as inhibition of bacterial growth in presence of 1.00 mmol/L Mg2+ (reference value: […] microg/ml); type: functional
Staphylococcus aureus [21] = test: Antibacterial activity against methicillin resistant Staphylococcus aureus N315 assessed as inhibition of bacterial growth in presence of 19 umol/L Zn2+ (reference value: […] microg/ml); type: functional
Staphylococcus aureus [22] = test: Antibacterial activity against methicillin resistant Staphylococcus aureus N315 assessed as inhibition of bacterial growth in presence of 20 umol/L Fe2+ (reference value: […] microg/ml); type: functional
Staphylococcus aureus [23] = test: Antibacterial activity against methicillin resistant Staphylococcus aureus N315 assessed as inhibition of bacterial growth in presence of 20 umol/L […] (reference value: […] microg/ml); type: functional
Staphylococcus aureus [24] = test: Antibacterial activity against methicillin resistant Staphylococcus aureus NCTC10442 assessed as inhibition of bacterial growth in presence of 140 mmol/L Na+ (reference value: […] microg/ml); type: functional
Staphylococcus aureus [25] = test: Antibacterial activity against methicillin resistant Staphylococcus aureus NCTC10442 assessed as inhibition of bacterial growth in presence of 4.5 mmol/L K+ (reference value: […] microg/ml); type: functional
Staphylococcus aureus [26] = test: Antibacterial activity against methicillin resistant Staphylococcus aureus NCTC10442 assessed as inhibition of bacterial growth in presence of 2.50 mmol/L Ca2+ (reference value: […] microg/ml); type: functional
Staphylococcus aureus [27] = test: Antibacterial activity against methicillin resistant Staphylococcus aureus NCTC10442 assessed as inhibition of bacterial growth in presence of 1.00 mmol/L Mg2+ (reference value: […] microg/ml); type: functional
Staphylococcus aureus [28] = test: Antibacterial activity against methicillin resistant Staphylococcus aureus NCTC10442 assessed as inhibition of bacterial growth in presence of 19 umol/L Zn2+ (reference value: […] microg/ml); type: functional
Staphylococcus aureus [29] = test: Antibacterial activity against methicillin resistant Staphylococcus aureus NCTC10442 assessed as inhibition of bacterial growth in presence of 20 umol/L Fe2+ (reference value: […] microg/ml); type: functional
Staphylococcus aureus [30] = test: Antibacterial activity against methicillin resistant Staphylococcus aureus NCTC10442 assessed as inhibition of bacterial growth in presence of 20 umol/L […] (reference value: […] microg/ml); type: functional
Cell membrane [31] = test: Induction of cell membrane disruption in Staphylococcus aureus ATCC 29213 assessed as increase in fluorescence intensity measured for 100 mins by SYTOX green assay; type: subcellular; details: DDE = dose-dependent effect
Cell membrane [32] = test: Induction of cell membrane disruption in methicillin resistant Staphylococcus aureus NCTC10442 assessed as increase in fluorescence intensity measured for 100 mins by SYTOX green assay; type: subcellular; details: DDE = dose-dependent effect
[33] = Displacement of BODIPY-TR-cadaverine from Lipoteichoic acid at 4 times MIC preincubated with LTA for 15 mins followed by compound addition and measured for 30 mins by fluorescence based microplate reader assay; details: time 45.0 min
[34] = Displacement of BODIPY-TR-cadaverine from Lipoteichoic acid preincubated with LTA for 15 mins followed by compound addition and measured for 30 mins by fluorescence based microplate reader assay; details: time 45.0 min; DDE = dose-dependent effect
Cell membrane [35] = test: Disruption of membrane integrity in Staphylococcus aureus ATCC 29213 assessed as cell membrane damage at 8 times MIC incubated for 2 hrs by Live/dead staining based laser confocal microscopy analysis; type: subcellular
Staphylococcus aureus [36] = test: Induction of morphological changes in Staphylococcus aureus ATCC 29213 assessed as perforation at 8 times MIC incubated for 2 hrs by TEM analysis; type: functional, organism-based
[37] = Cytotoxicity against mouse NCTC clone 929 cells assessed as cell viability at 50 ug/ml after 24 hrs by CCK8 assay; type: toxicity, cell-based; details: at 50 µg/mL, read-out: Activity
[38] = Cytotoxicity against human HEK293 cells assessed as cell viability at 50 ug/ml after 24 hrs by CCK8 assay; type: toxicity, cell-based; details: at 50 µg/mL, read-out: Activity
Staphylococcus aureus [39] = test: Antibacterial activity against Staphylococcus aureus ATCC 29213 infected in mouse corneal infection model assessed as log reduction in bacterial load at 5 mg/ml pre-infected with bacteria for 24 hrs followed by compound administered four times a day for 3 consecutive weeks; type: functional; details: time 3 weeks
Staphylococcus aureus [40] = test: Antibacterial activity against Staphylococcus aureus ATCC 15981 assessed as inhibition of bacterial growth incubated for 24 hrs by microbroth dilution method; type: functional

## CN[C@H](CC(C)C)C(=O)N[C@H]1C(=O)N[C@@H](CC(N)=O)C(=O)N[C@H]2C(=O)N[C@H]3C(=O)N[C@H](C(=O)N[C@H](C(=O)O)c4cc(O)cc(O)c4-c4cc3ccc4O)[C@H](O)c3ccc(c(Cl)c3)Oc3cc2cc(c3O[C@@H]2O[C@H](CO)[C@@H](O)[C@H](O)[C@H]2O[C@H]2C[C@](C)(N)[C@H](O)[C@H](C)O2)Oc2ccc(cc2Cl)[C@H]1O [VANCOMYCIN]
Staphylococcus aureus [1]
  MIC: 0.78 µg/mL (≈ 0.538 µM)
Staphylococcus aureus [2]
  MIC: 1.56 µg/mL (≈ 1.08 µM)
Staphylococcus aureus [3]
  MIC: 0.78 µg/mL (≈ 0.538 µM)
Staphylococcus aureus [4]
  log(activity): 5.21

## COC(=O)[C@H](CCCNC(=N)N)NC(=O)COc1ccc(C(C)(C)CC(C)(C)C)cc1Sc1cc(C(C)(C)CC(C)(C)C)ccc1OCC(=O)N[C@@H](CCCNC(=N)N)C(=O)OC
[5]
  HC50 at 1 h: > 200 µg/mL
Staphylococcus aureus [1]
  MIC: 1.56 µg/mL (≈ 1.73 µM)
Staphylococcus aureus [2]
  MIC: 0.78 µg/mL (≈ 0.867 µM)
Staphylococcus aureus [3]
  MIC: 0.78 µg/mL (≈ 0.867 µM)
Bacillus subtilis
  MIC: 0.78 µg/mL (≈ 0.867 µM)
[6]
  MIC: 0.39 µg/mL (≈ 0.434 µM)
[7]
  MIC: 0.39 µg/mL (≈ 0.434 µM)
Enterococcus faecalis
  MIC: 0.78 µg/mL (≈ 0.867 µM)
Staphylococcus aureus [8]
  MIC: 0.78 µg/mL
Staphylococcus aureus [9]
  Activity: 99.99%
Staphylococcus aureus [10]
  Activity: Active
Staphylococcus aureus [11]
  MIC: 1.56 µg/mL
Staphylococcus aureus [12]
  MIC: 1.56 µg/mL
Staphylococcus aureus [13]
  MIC: 1.56 µg/mL
Staphylococcus aureus [14]
  MIC: 1.56 µg/mL
Staphylococcus aureus [15]
  MIC: 0.78 µg/mL
Staphylococcus aureus [16]
  MIC: 0.78 µg/mL
Staphylococcus aureus [17]
  MIC: 0.39 µg/mL
Staphylococcus aureus [18]
  MIC: 0.78 µg/mL
Staphylococcus aureus [19]
  MIC: 0.78 µg/mL
Staphylococcus aureus [20]
  MIC: 0.78 µg/mL
Staphylococcus aureus [21]
  MIC: 0.78 µg/mL
Staphylococcus aureus [22]
  MIC: 0.78 µg/mL
Staphylococcus aureus [23]
  MIC: 0.78 µg/mL
Staphylococcus aureus [24]
  MIC: 0.78 µg/mL
Staphylococcus aureus [25]
  MIC: 0.78 µg/mL
Staphylococcus aureus [26]
  MIC: 0.78 µg/mL
Staphylococcus aureus [27]
  MIC: 0.78 µg/mL
Staphylococcus aureus [28]
  MIC: 0.78 µg/mL
Staphylococcus aureus [29]
  MIC: 0.78 µg/mL
Staphylococcus aureus [30]
  MIC: 0.78 µg/mL
Cell membrane [31]
  Activity: Dde
Cell membrane [32]
  Activity: Dde
[33]
  Activity: 62.2%
[34]
  Activity: Dde
Cell membrane [35]
  Activity: Active
Staphylococcus aureus [36]
  Activity: Active
[37]
  viability at 24 h, 50 ug/ml: 53.1%
[38]
  viability at 24 h, 50 ug/ml: 55.9%
Staphylococcus aureus [39]
  log(activity): 6.81
Staphylococcus aureus [40]
  MIC: 0.78 µg/mL (≈ 0.867 µM)
